Data as given in PMC3597565, “Display of Multimeric Antimicrobial Peptides on the Escherichia coli Cell Surface and Its Application as Whole-Cell Antibiotics” (PLoS ONE, 2013).
Values after ≈ are worked out from the molar mass of the structure shown. Peptide text beside a SMILES is read from it.

Columns and labels:
Assay type in all cases: cell-based
[1] = tested on: Listeria monocytogenes (ATCC 15313); conditions: ATCC 15313, 3 h
Procedure: The antimicrobial activity of each peptide was determined against eight representative microorganisms, including Gram-positive and Gram-negative bacteria and fungi, using the broth micro dilution assay as described by Park et al. with a slight modification. Briefly, mid-logarithmic phase cells were diluted to 1×10^5 cfu/ml in 10 mM sodium phosphate buffer (NAPB), pH 7.4. Each well of 96-well propylene micro titer plates (Costar, Cambridge, MA, USA) was filled with 90 µl of the diluted cell suspension and 10 µl of serially diluted peptide samples. […] Inhibition of growth was determined by measuring the absorbance at 620 nm with a Model 550 Microplate Reader (Bio-Rad, Hercules, CA, USA). […] The MIC values were calculated as an average of two independent experiments performed in triplicate.
Antimicrobial activities of the pepsin-digested peptide mixtures obtained from E. coli cells with surface-expressed LO-Bn fusion proteins were tested against two oral infectious pathogens, Salmonella enteritidis (ATCC 13076) and Listeria monocytogenes (ATCC 15313) as described above except using 10 µl of the 20-fold diluted peptide mixtures obtained from 1×10^11 E. coli cells with surface-expressed LO-Bn fusion proteins instead of synthetic peptide. Growth of cells was determined by measuring absorbance at 620 nm with a Model 550 Microplate Reader (Bio-Rad). […]

[2] = tested on: Streptococcus mutans (ATCC 25175); conditions: ATCC 25175, 3 h; for MIC: pH 7.4
Procedure: (§1) The antimicrobial activity of each peptide was determined against eight representative microorganisms, including Gram-positive and Gram-negative bacteria and fungi, using the broth micro dilution assay as described by Park et al. with a slight modification. Briefly, mid-logarithmic phase cells were diluted to 1×10^5 cfu/ml in 10 mM sodium phosphate buffer (NAPB), pH 7.4. Each well of 96-well propylene micro titer plates (Costar, Cambridge, MA, USA) was filled with 90 µl of the diluted cell suspension and 10 µl of serially diluted peptide samples. After incubation for 3 h, fresh medium (trypticase soy broth for bacteria and Saboraud' medium for fungi) was added to the mixture and incubated at 37°C (bacteria) or 30°C (fungi) for an additional 12 h. Inhibition of growth was determined by measuring the absorbance at 620 nm with a Model 550 Microplate Reader (Bio-Rad, Hercules, CA, USA). […] The MIC values were calculated as an average of two independent experiments performed in triplicate.
(§2) ^a To determine the effect of protease digestion on the antimicrobial activity of Buf IIIb-L, synthetic Buf IIIb-L was first incubated with pepsin, trypsin, or chymotrypsin. After incubation at 37 °C for 30 min, the antimicrobial activity of the digested peptide was determined against eight representative microorganisms, including Gram-positive and Gram-negative bacteria and fungi, as described in Materials and Methods.

[3] = tested on: Salmonella enteritidis (ATCC 13076); conditions: ATCC 13076, 3 h; for MIC: pH 7.4
Procedure: as §1, §2

[4] = tested on: Pseudomonas putida (ATCC 17426); conditions: ATCC 17426, 3 h; for MIC: pH 7.4
Procedure: as §1, §2

[5] = tested on: Saccharomyces cerevisiae (ATCC 44774); conditions: ATCC 44774, 3 h; for MIC: pH 7.4
Procedure: as §1, §2

[6] = tested on: Candida albicans (ATCC 10231); conditions: ATCC 10231, 3 h; for MIC: pH 7.4
Procedure: as §1, §2

[7] = tested on: Escherichia coli (ATCC 27325); conditions: ATCC 27325, 3 h; for MIC: pH 7.4
Procedure: as §1, §2

[8] = tested on: Bacillus subtilis (ATCC 62037); conditions: ATCC 62037, 3 h; for MIC: pH 7.4
Procedure: as §1, §2

[9] = tested on: Staphylococcus aureus (ATCC 15752); conditions: ATCC 15752, 3 h; for MIC: pH 7.4
Procedure: as §1, §2

[10] = tested on: eight representative microorganisms, including Gram-positive and Gram-negative bacteria and fungi; conditions: 3 h
Procedure: as §1

With `CC[C@H](C)[C@H](NC(=O)[C@@H]1CCCN1C(=O)[C@H](Cc1c[nH]c2ccccc12)NC(=O)[C@H](CCC(N)=O)NC(=O)[C@H](CCCNC(=N)N)NC(=O)[C@@H](NC(=O)[C@@H](NC(=O)[C@@H](N)CCCNC(=N)N)C(C)C)C(C)C)C(=O)NCC(=O)N[C@@H](CCCNC(=N)N)C(=O)N[C@H](C(=O)N[C@H](C(=O)N[C@@H](CCCNC(=N)N)C(=O)N[C@@H](CCCNC(=N)N)C(=O)N[C@H](C(=O)N[C@H](C(=O)N[C@@H](CCCNC(=N)N)C(=O)N[C@@H](CCCNC(=N)N)C(=O)N[C@H](C(=O)N[C@H](C(=O)N[C@@H](CCCNC(=N)N)C(=O)N[C@@H](CC(C)C)C(=O)O)C(C)C)C(C)C)C(C)C)C(C)C)C(C)C)C(C)C` [Buf IIIb-L] (H-RVVRQWPIGRVVRRVVRRVVRL-OH) the MIC [1] was 2 µg/mL (≈ 0.726 µM), the “MIC of Buf IIIb-L digested with Chymotrypsin” value (from here on “MIC … with Chymotrypsin”) [2] was over 256 µg/mL and the “MIC of Buf IIIb-L digested with Pepsin” value [2] was 2 µg/mL. For the same compound, the “MIC of Buf IIIb-L digested with Trypsin” value [2] was over 256 µg/mL, the MIC [2] was 2 µg/mL (≈ 0.726 µM) and the “MIC … with Chymotrypsin” value [3] was over 256 µg/mL. For the same compound, the “MIC of Buf IIIb-L digested with Pepsin” value [3] was 4 µg/mL, the “MIC of Buf IIIb-L digested with Trypsin” value [3] was over 256 µg/mL and the MIC [3] was 4 µg/mL (≈ 1.45 µM). For the same compound, the “MIC … with Chymotrypsin” value [4] was over 256 µg/mL, the “MIC of Buf IIIb-L digested with Pepsin” value [4] was 4 µg/mL and the “MIC of Buf IIIb-L digested with Trypsin” value [4] was over 256 µg/mL. The MIC [4] was 4 µg/mL (≈ 1.45 µM), the “MIC … with Chymotrypsin” value [5] was over 256 µg/mL and the “MIC of Buf IIIb-L digested with Pepsin” value [5] was 2 µg/mL. The “MIC of Buf IIIb-L digested with Trypsin” value [5] was over 256 µg/mL, the MIC [5] was 2 µg/mL (≈ 0.726 µM) and the “MIC … with Chymotrypsin” value [6] was over 256 µg/mL. The “MIC of Buf IIIb-L digested with Pepsin” value [6] was 2 µg/mL, the “MIC of Buf IIIb-L digested with Trypsin” value [6] was over 256 µg/mL and the MIC [6] was 2 µg/mL (≈ 0.726 µM). For the same compound, the “MIC … with Chymotrypsin” value [7] was over 256 µg/mL, the “MIC of Buf IIIb-L digested with Pepsin” value [7] was 2 µg/mL and the “MIC of Buf IIIb-L digested with Trypsin” value [7] was over 256 µg/mL. The MIC [7] was 2 µg/mL (≈ 0.726 µM), the “MIC … with Chymotrypsin” value [8] was over 256 µg/mL and the “MIC of Buf IIIb-L digested with Pepsin” value [8] was 2 µg/mL. The “MIC of Buf IIIb-L digested with Trypsin” value [8] was over 256 µg/mL, the MIC [8] was 2 µg/mL (≈ 0.726 µM) and the “MIC … with Chymotrypsin” value [9] was over 256 µg/mL. The “MIC of Buf IIIb-L digested with Pepsin” value [9] was 2 µg/mL, the “MIC of Buf IIIb-L digested with Trypsin” value [9] was over 256 µg/mL and the MIC [9] was 2 µg/mL (≈ 0.726 µM).
With `CC[C@H](C)[C@H](NC(=O)[C@@H]1CCCN1C(=O)[C@H](Cc1c[nH]c2ccccc12)NC(=O)[C@H](CCC(N)=O)NC(=O)[C@H](CCCNC(=N)N)NC(=O)[C@@H](NC(=O)[C@@H](NC(=O)[C@@H](N)CCCNC(=N)N)C(C)C)C(C)C)C(=O)NCC(=O)N[C@@H](CCCNC(=N)N)C(=O)N[C@H](C(=O)N[C@H](C(=O)N[C@@H](CCCNC(=N)N)C(=O)N[C@@H](CCCNC(=N)N)C(=O)N[C@H](C(=O)N[C@H](C(=O)N[C@@H](CCCNC(=N)N)C(=O)N[C@@H](CCCNC(=N)N)C(=O)N[C@H](C(=O)N[C@H](C(=O)N[C@@H](CCCNC(=N)N)C(=O)O)C(C)C)C(C)C)C(C)C)C(C)C)C(C)C)C(C)C` [Buf IIIb] (H-RVVRQWPIGRVVRRVVRRVVR-OH) the MIC [2] was 2 µg/mL (≈ 0.757 µM), the MIC [3] was 2 µg/mL (≈ 0.757 µM) and the MIC [4] was 1 µg/mL (≈ 0.378 µM). For the same compound, the MIC [5] was 0.5 µg/mL (≈ 0.189 µM), the MIC [6] was 1 µg/mL (≈ 0.378 µM) and the MIC [7] was 1 µg/mL (≈ 0.378 µM). For the same compound, the MIC [8] was 2 µg/mL (≈ 0.757 µM), the MIC [9] was 2 µg/mL (≈ 0.757 µM) and the “MIC, range over the microorganisms of Table 2” value [10] was 0.5 to 2 µg/mL.
Compound `CC[C@H](C)[C@H](NC(=O)[C@@H]1CCCN1C(=O)[C@H](Cc1c[nH]c2ccccc12)NC(=O)[C@H](CCC(N)=O)NC(=O)[C@H](CCCNC(=N)N)NC(=O)[C@@H](NC(=O)[C@@H](NC(=O)[C@@H](N)CCCNC(=N)N)C(C)C)C(C)C)C(=O)NCC(=O)N[C@@H](CCCNC(=N)N)C(=O)N[C@H](C(=O)N[C@H](C(=O)N[C@@H](CCCNC(=N)N)C(=O)N[C@@H](CCCNC(=N)N)C(=O)N[C@H](C(=O)N[C@H](C(=O)N[C@@H](CCCNC(=N)N)C(=O)N[C@@H](CCCNC(=N)N)C(=O)N[C@H](C(=O)N[C@H](C(=O)N[C@@H](CCCNC(=N)N)C(=O)N[C@@H](Cc1ccc(O)cc1)C(=O)O)C(C)C)C(C)C)C(C)C)C(C)C)C(C)C)C(C)C` [Buf IIIb-Y] (H-RVVRQWPIGRVVRRVVRRVVRY-OH) has an MIC [2] of 2 µg/mL (≈ 0.713 µM), an MIC [3] of 2 µg/mL (≈ 0.713 µM) and an MIC [4] of 2 µg/mL (≈ 0.713 µM). The MIC [5] was 1 µg/mL (≈ 0.356 µM), the MIC [6] was 4 µg/mL (≈ 1.43 µM) and the MIC [7] was 4 µg/mL (≈ 1.43 µM). The MIC [8] was 2 µg/mL (≈ 0.713 µM) and the MIC [9] was 2 µg/mL (≈ 0.713 µM).
Compound `CC[C@H](C)[C@H](NC(=O)[C@@H]1CCCN1C(=O)[C@H](Cc1c[nH]c2ccccc12)NC(=O)[C@H](CCC(N)=O)NC(=O)[C@H](CCCNC(=N)N)NC(=O)[C@@H](NC(=O)[C@@H](NC(=O)[C@@H](N)CCCNC(=N)N)C(C)C)C(C)C)C(=O)NCC(=O)N[C@@H](CCCNC(=N)N)C(=O)N[C@H](C(=O)N[C@H](C(=O)N[C@@H](CCCNC(=N)N)C(=O)N[C@@H](CCCNC(=N)N)C(=O)N[C@H](C(=O)N[C@H](C(=O)N[C@@H](CCCNC(=N)N)C(=O)N[C@@H](CCCNC(=N)N)C(=O)N[C@H](C(=O)N[C@H](C(=O)N[C@@H](CCCNC(=N)N)C(=O)N[C@@H](Cc1ccccc1)C(=O)O)C(C)C)C(C)C)C(C)C)C(C)C)C(C)C)C(C)C` [Buf IIIb-F] (H-RVVRQWPIGRVVRRVVRRVVRF-OH) has an MIC [2] of 2 µg/mL (≈ 0.717 µM), an MIC [3] of 2 µg/mL (≈ 0.717 µM) and an MIC [4] of 4 µg/mL (≈ 1.43 µM). The MIC [5] was 0.5 µg/mL (≈ 0.179 µM), the MIC [6] was 0.5 µg/mL (≈ 0.179 µM) and the MIC [7] was 4 µg/mL (≈ 1.43 µM). It also gave an MIC [8] of 2 µg/mL (≈ 0.717 µM) and an MIC [9] of 2 µg/mL (≈ 0.717 µM).
With `CC(C)C[C@H](NC(=O)CNC(=O)[C@H](C)NC(=O)[C@@H](N)CCCNC(=N)N)C(=O)N[C@@H](CCC(N)=O)C(=O)N[C@@H](Cc1ccccc1)C(=O)N1CCC[C@H]1C(=O)N[C@H](C(=O)NCC(=O)N[C@@H](CCCNC(=N)N)C(=O)N[C@@H](CC(C)C)C(=O)N[C@@H](CC(C)C)C(=O)N[C@@H](CCCNC(=N)N)C(=O)N[C@@H](CCCNC(=N)N)C(=O)N[C@@H](CC(C)C)C(=O)N[C@@H](CC(C)C)C(=O)N[C@@H](CCCNC(=N)N)C(=O)N[C@@H](CCCNC(=N)N)C(=O)N[C@@H](CC(C)C)C(=O)N[C@@H](CC(C)C)C(=O)N[C@@H](CCCNC(=N)N)C(=O)O)C(C)C` [Buforin llb, reference compound] (H-RAGLQFPVGRLLRRLLRRLLR-OH; N-terminus and C-terminus assumed) the MIC [2] was 2 µg/mL (≈ 0.781 µM), the MIC [3] was 2 µg/mL (≈ 0.781 µM) and the MIC [4] was 2 µg/mL (≈ 0.781 µM). For the same compound, the MIC [5] was 2 µg/mL (≈ 0.781 µM), the MIC [6] was 2 µg/mL (≈ 0.781 µM) and the MIC [7] was 1 µg/mL (≈ 0.391 µM). It also gave an MIC [8] of 1 µg/mL (≈ 0.391 µM) and an MIC [9] of 2 µg/mL (≈ 0.781 µM).
